Columns and labels:
[1] = biological target: T1, V122I TTR (Homo sapiens, UniProt P02766, V142I); test: Inhibition of mechano-enzymatic fibrillogenesis (ThT); format: biochemical; settings: for antifibrillogenic activity, in words: V122I TTR
T1 construct: 1-127; His6 (N); TEV cleavage site (N); made in house; host or cells: E. coli BL21 (DE3)
Method: To test their potency as inhibitors of TTR fibril formation, the 15 ligands were evaluated for their ability to inhibit the mechano-enzymatic mechanism of fibrillogenesis of V122I TTR, which is one of the most common amyloidogenic variants, , causing a disease with severity intermediate between the wild-type and other rare, more aggressive types of amyloidosis. […] Biochemical activity of ligands together with their physicochemical properties (i.e., cLogD, TPSA) were taken into consideration and B26 was finally selected as the most promising lead for further studies (Figure A). […] Prototype mds84 was also included for comparison. […] Although higher molar ratios of the monovalent ligands did inhibit fibrillogenesis, this cannot be replicated in vivo because the negative cooperativity of TTR cannot be overcome at feasible drug dosage. ,
Recombinant V122I TTR at 0.5 mg/mL (9 μM) in PBS, pH 7.4 was preincubated (37 °C for 30 min) with an equimolar concentration of ligand (or DMSO alone) before adding trypsin (5 ng/μL). Protein fibrillogenesis was carried out in glass vials stirred at 1400 rpm (IKA magnetic stirrer), 37 °C and spectrophotometric turbidity at 400 nm was used to monitor fibril formation over time until it reached a plateau at 96 h.
Analysis of amyloid material harvested from each sample at the end of the fibrillogenesis was carried out using Thioflavin T (ThT) emission fluorescence and Congo red staining. For these analyses, samples were centrifuged 20 min at 11,600g and pellets were thoroughly rinsed with PBS to remove nonbound ligand, resuspended with 100 μL PBS, pH 7.4, containing 10 μM Thioflavin T (ThT) in Costar 96-well black-wall plates. Bottom fluorescence values (excitation 440 nm, emission 480 nm) were recorded using a BMG LABTECH FLUostar Omega plate reader. Each value was normalized to the ThT signal of the TTR sample without ligand.

[2] = biological target: T2, isolated recombinant wild-type TTR (Homo sapiens, UniProt P02766); test: Displacement of 125I-T4 from isolated wild-type TTR; format: binding; settings: for IC50: ligand concentration reducing binding of 125I-thyroxine by isolated recombinant wild-type TTR by 50%, mean ± SD, read-out: bIC50; for IC50 in buffer (bIC50) compared to mds84, in words: isolated TTR
T2 construct: Native TTR is a noncovalent homotetramer of β-sheet-rich 127-residue protomers; His6 (N); TEV cleavage site (N); made in house; host or cells: E. coli BL21 (DE3)
Method: Competition of ligands with thyroxine for binding by TTR was assayed quantitatively by a previously described procedure.

[3] = biological target: T3, wild-type TTR in normal human plasma (Homo sapiens, UniProt P02766); test: Displacement of 125I-T4 from TTR in normal human plasma; format: binding; settings: for binding to TTR in plasma, in words: normal human plasma
T3 construct: TTR in whole plasma, from individuals homozygous for wild-type TTR; from tissue; host or cells: whole human plasma from individuals homozygous for wild-type TTR

[4] = residual V122I TTR fibrillar aggregation with equimolar ligand, ThT emission normalized to protein without ligand, mean ± SD
[5] = supplementary CSV, residual V122I TTR aggregation, equimolar ligand
[6] = ligand concentration reducing binding of 125I-thyroxine by wild-type TTR by 50% in normal human plasma, mean ± SD

Row | SMILES | antifibrillogenic activity, in words ([1]; equimolar ligand) | Agg (%) [1, 4] [%] | Agg (%) [1, 5] [%] | IC50 [2] [nM] | binding to TTR in plasma, in words [3] | IC50 ([3]; supplementary CSV, TTR in normal human plasma) [nM] | IC50 [3, 6] [nM] | IC50 in buffer (bIC50) compared to mds84, in words [2] | inhibition of V122I TTR amyloid formation at equimolar ligand/protein, in words ([1]; 9 μM V122I TTR, equimolar concentration, bivalent vs monovalent ligands)
1 | O=C(O)CCc1cc(Cl)c(OCC[C@@H](O)[C@H](O)CCOc2c(Cl)cc(Nc3ccccc3C(=O)O)cc2Cl)c(Cl)c1 [B4A, 2-[4-[(3R,4R)-6-[4-(2-carboxyethyl)-2,6-dichloro-phenoxy]-3,4-dihydroxy-hexoxy]-3,5-dichloro-anilino]-Benzoic Acid] | excellent inhibitors of fibrillogenesis | 3.3 ± 1.2 | 4.4±3.0 | 70 ± 9 | increased the potency of binding | 4400 ± 1200 |  |  | 
2 | O=C(O)CCc1cc(Cl)c(OCC[C@@H](O)[C@H](O)CCOc2ccc(Nc3ccccc3C(=O)O)cc2Cl)c(Cl)c1 [B20, 2-[4-[(3R,4R)-6-[4-(2-Carboxyethyl)-2,6-dichloro-phenoxy]-3,4-dihydroxy-hexoxy]-3-chloro-anilino]-Benzoic Acid] | reduced potency | 11 ± 4.1 | 11±4.1 |  | reduction in the observed potency |  |  |  | 
3 | O=C(O)CCc1cc(Cl)c(OCC[C@H](O)[C@@H](O)CCOc2c(Cl)cc(Nc3ccccc3C(=O)O)cc2Cl)c(Cl)c1 [B4, 2-[4-[(3S,4S)-6-[4-(2-Carboxyethyl)-2,6-dichloro-phenoxy]-3,4-dihydroxy-hexoxy]-3,5-dichloro-anilino]-benzoic acid] | excellent inhibitors of fibrillogenesis | 4.4 ± 3.0 |  |  | increased the potency of binding |  |  |  | 
4 | O=C(O)CCc1ccc(OCCC(O)C(O)CCOc2c(Cl)cc(Nc3ccccc3C(=O)O)cc2Cl)c(Cl)c1 (stereo not drawn) [B21, 2-[4-[6-[4-(2-Carboxyethyl)-2-chloro-phenoxy]-3,4-dihydroxy-hexoxy]-3,5-dichloro-anilino]-Benzoic Acid] | reduced potency | 15 ± 2.8 | 15±2.8 | 70 ± 4 | reduction in the observed potency |  | 4100 ± 2100 |  | 
5 | O=C(O)CCc1cc(Cl)c(OCC/C=C/CCOc2c(Cl)cc(Nc3ccccc3C(=O)O)cc2Cl)c(Cl)c1 [B14, 2-[4-[(E)-6-[4-(2-Carboxyethyl)-2,6-dichloro-phenoxy]-hex-3-enoxy]-3,5-dichloro-anilino]-Benzoic Acid] | Antifibrillogenic activity was reduced | 13 ± 3.2 | 13±3.2 | 80 ± 8 |  |  | 11000 ± 2900 |  | 
6 | O=C(O)CCc1cc(Cl)c(OCCOCCCCOc2c(Cl)cc(Nc3ccccc3C(=O)O)cc2Cl)c(Cl)c1 [B2, 2-[4-[4-[2-[4-(2-Carboxyethyl)-2,6-dichloro-phenoxy]-ethoxy]-butoxy]-3,5-dichloro-anilino]-Benzoic Acid] | excellent inhibitors of fibrillogenesis | 4.4 ± 1.5 | 4.4±1.5 |  | increased the potency of binding |  | 2600 ± 590 |  | 
7 | O=C(O)CCc1cc(Cl)c(OCOCCCOc2c(Cl)cc(Nc3ccccc3C(=O)O)cc2Cl)c(Cl)c1 [B8, 2-[4-[3-[[4-(2-Carboxyethyl)-2,6-dichloro-phenoxy]-methoxy]-propoxy]-3,5-dichloro-anilino]-Benzoic Acid] | Antifibrillogenic activity was reduced | 12 ± 3.7 | 12±3.7 | 2100 ± 210 | reduced binding |  | > 150000 | higher values of IC50 | 
8 | O=C(O)CCOCCCOCCCOCCCOc1c(Cl)cc(Nc2ccccc2C(=O)O)cc1Cl [B6, 2-[4-[3-[3-[3-(2-Carboxy-ethoxy)-propoxy]-propoxy]-propoxy]-3,5-dichloro-anilino]-Benzoic Acid] | Antifibrillogenic activity was reduced | 12 ± 4.4 | 12±4.4 | 1200 ± 410 | reduced binding |  | 40000 ± 13000 | higher values of IC50 | 
9 | O=C(O)CCc1cc(Cl)c(OCCCOCCOc2c(Cl)cc(Nc3ccccc3C(=O)O)cc2Cl)c(Cl)c1 [B1, 2-[4-[2-[3-[4-(2-Carboxyethyl)-2,6-dichloro-phenoxy]-propoxy]-ethoxy]-3,5-dichloro-anilino]-Benzoic Acid] | excellent inhibitors of fibrillogenesis | 5.2 ± 3.6 | 5.2±3.6 | 100 ± 30 | increased the potency of binding |  | 1100 ± 110 |  | 
10 | O=C(O)CCc1cc(Cl)c(OCCCOCCOc2c(Cl)cc(Nc3cnncc3C(=O)O)cc2Cl)c(Cl)c1 [B24, 5-[4-[2-[3-[4-(2-Carboxyethyl)-2,6-dichloro-phenoxy]-propoxy]-ethoxy]-3,5-dichloro-anilino]-Pyridazine-4-Carboxylic acid] |  | 13 ± 8.2 | 13±8.2 | 100 ± 5 | slight reduction of binding potency |  | 7900 ± 1400 |  | 
11 | Cc1n[nH]c(C)c1CCCOc1cc(C(=O)O)ccc1F [AG10, acoramidis, reference compound] |  |  |  |  |  |  |  |  | significantly lower inhibitory effect
12 | O=C(O)CCc1cc(Cl)c(OCCCOCCOc2c(Cl)cc(Nc3ccnnc3C(=O)O)cc2Cl)c(Cl)c1 [B25, 4-[4-[2-[3-[4-(2-Carboxyethyl)-2,6-dichloro-phenoxy]-propoxy]-ethoxy]-3,5-dichloro-anilino]-Pyridazine-3-Carboxylic acid] |  | 11 ± 4.8 | 11±4.8 |  | preservation of the properties |  | 3300 ± 1800 |  | 
13 | O=C(O)CCc1ccc(OCC[C@@H](O)[C@H](O)CCOc2ccc(Nc3ccccc3C(=O)O)cc2Cl)c(Cl)c1 [B22, 2-[4-[(3R,4R)-6-[4-(2-Carboxyethyl)-2-chloro-phenoxy]-3,4-dihydroxy-hexoxy]-3-chloro-anilino]Benzoic Acid] | reduced potency | 15 ± 2.8 | 15±2.8 |  | reduction in the observed potency |  |  |  | 
14 | O=C(O)COCCOCCOCCOc1c(Cl)cc(Nc2ccccc2C(=O)O)cc1Cl [B5, 2-[4-[2-[2-[2-(Carboxymethoxy)-ethoxy]-ethoxy]-ethoxy]-3,5-dichloro-anilino]-Benzoic Acid] | Antifibrillogenic activity was reduced | 28.8 ± 13.4 | 28.8±13.4 | 5000 ± 400 | reduced binding |  |  | higher values of IC50 | 
15 | O=C(O)CCc1cc(Cl)c(OCCCOCCOc2c(Cl)cc(Nc3ccncc3C(=O)O)cc2Cl)c(Cl)c1 [B27, 4-[4-[2-[3-[4-(2-Carboxyethyl)-2,6-dichloro-phenoxy]-propoxy]-ethoxy]-3,5-Dichloro-anilino]-Pyridine-3-Carboxylic Acid] |  | 12 ± 1.1 | 12±1.1 |  | preservation of the properties |  |  |  | 

— article PMC12169680, “Design and Mechanistic Analysis of a Potent Bivalent Inhibitor of Transthyretin Amyloid Fibrillogenesis” (Journal of Medicinal Chemistry, 2025)
